Where two headings read alike, the source gives them in different places.
How the values were obtained:
[1] = system: Acanthamoeba castellanii T4 isolate (ATCC 50370) trophozoites; assay: CellTiter-Glo 2.0 trophocidal assay, A. castellanii; format: cell-based; details: read-out: Acanthamoeba castellanii EC50 ± SD
From the text: This isolate was purchased from American Type Culture Collection (ATCC). […] For sub-culturing, cells were mechanically harvested to detach the cells from the culture flasks.

[2] = system: Naegleria fowleri (ATCC 30215) trophozoites; assay: microbe, parasite or virus in culture
Protocol: Trophozoites were routinely grown axenically at 34°C, 5% CO2, in Nelson’s complete medium (NCM) in non-vented 75 cm^2 tissue culture flasks (Olympus), until the cells were 80–90% confluent. For sub-culturing, cells were placed on ice to detach the cells from the culture flasks. […] Complete NCM media is prepared by the addition of 10% fetal bovine serum (FBS) and 100 U/mL penicillin, and 100 μg/mL streptomycin antibiotics.
Trophozoites were routinely cultured as described above and only logarithmic trophozoites were used.
All assays were incubated at each of the parasites’ representative growth temperatures, described above, for 72 h. At the 72-h time point, 25 μL of CellTiter-Glo 2.0 reagent was added to all wells of the 96-well plates by hand. The plates were protected from light and contents were mixed using an orbital shaker at 300 rpm at room temperature for 2 min to induce cell lysis. After shaking, the plates were equilibrated at room temperature for 10 min to stabilize the luminescent signal. The ATP luminescent signal (relative light units; RLUs) were measured […] with a SpectraMax I3X plate reader (Molecular Devices, Sunnyvale, CA, United States). […] Values reported are from a minimum of three biological replicates with standard deviation.

[3] = system: Balamuthia mandrillaris (CDC:V039; ATCC 50209) trophozoites; assay: CellTiter-Glo 2.0 trophocidal assay, B. mandrillaris; format: cell-based; details: Balamuthia mandrillaris, ATCC50209, 72 h, read-out: Balamuthia mandrillaris EC50 ± SD
From the text: For sub-culturing, 0.25% Trypsin–EDTA (Gibco) cell detachment reagent was used to detach the cells from the culture flasks.

[4] = Human fetal lung fibroblast (MRC5) cell cytotoxicity assay (resazurin); details: human
Protocol: (§1) Intermediate plates were made as described, adding 95 μL of DMEM complete media to 5 μL of compound per well setting a 5% DMSO amount. Log-phase MRC5 cells were removed from a T-75 TC flask using TrypLE® Express (Thermo®) and dispersed by gentle pipetting. Cell density was adjusted to working concentration in prewarmed DMEM medium: 25,000 cells in 90 μL of culture were plated in 96-well transparent Nunclon plates and allowed to settle for 24 h at 37°C and 5% CO2. […] Plates were incubated for 48 h at 37°C and 5% CO2. At 4 h prior to fluorescence measurement, 20 μL of 500 μM resazurin solution was added.
(§2) A four-parameter equation was used to fit the dose–response curves and determination of EC50 by SigmaPlot ® 13.0 software. Assays were performed in duplicate at least twice for positive compounds, to achieve a minimal […] per dose response.

MRC5 cells = assay: as above; details: Table S2
Protocol: as §1, §2

L6 cells = assay: Rat skeletal muscle cell line (L6) cytotoxicity assay (resazurin); details: Table S2; in µM
Protocol: One hundred microliters (100 μL) per well of culture medium containing the compounds and controls were added to L6 cells previously cultured (4 × 10^3 L6 cells per well). After 72 h at 37°C the medium was exchanged, and the viable cell number was determined by resazurin (Sigma–Aldrich) reduction. 20 μl of resazurin (1.1 mg/ml) was added to each well and incubated in the dark for 2 h at 37°C.

THP-1 = assay: Cytotoxicity assay in THP-1 (MTT); format: cell-based; details: Table S2, 72 h, maximal concentration 50 μM
Protocol: Cytotoxicity assay in TH P-1. Cellular toxicity of all compounds was determined using the colorimetric MTT-based assay after incubation at 37 °C for 72 h in the presence of increasing concentrations of compounds (final maximal concentration was 50 μM in 0.5% DMSO per well) [ 1] . The results are expressed […]
cells. Assays were performed in duplicate at least twice to achieve a minimal n=3 per dose response. […]
Cytotoxicity assay in THP-1. Cellular toxicity of all compounds was determined using the colorimetric MTT-based assay after incubation at 37 °C for 72 h in the presence of increasing concentrations of compounds (final maximal concentration was 50 μM in 0.5% DMSO per well). […] Assays were performed in duplicate at least twice to achieve a minimal n=3 per dose response.

[5] = Acanthamoeba castellanii, ATCC50370, 72 h
[6] = Naegleria fowleri, 72 h, read-out: Naegleria fowleri EC50 ± SD, logarithmic trophozoites, 72 h, n = 3 (converted)
[7] = MRC5 cells (human fetal lung fibroblasts)
[8] = read-out: Naegleria fowleri EC50 ± SD, logarithmic trophozoites, 72 h, n = 3
[9] = Naegleria fowleri, ATCC30215, 72 h, read-out: Naegleria fowleri EC50 ± SD, logarithmic trophozoites, 72 h, n = 3 (converted)
[10] = Acanthamoeba castellanii, ATCC50370, 72 h, logarithmic trophozoites, 72 h, n = 3
[11] = logarithmic trophozoites, 72 h, n = 3

| EC50 [2, 9] | Structure (SMILES) | EC50 [2, 6] | EC50 [3] | CC50 at 48 h [4, 7] | also measured |
| --- | --- | --- | --- | --- | --- |
| – | c1ccc(Nc2nccc(-c3cnn4ccccc34)n2)cc1 [Compound 2a] | 0.94 ± 0.17 µM | 4.2 ± 0.6 µM | > 50 µM | EC50 [1, 5]: 13 ± 6.9 µM |
| – | N#Cc1cccc(Nc2nccc(-c3c(C4CC4)nn4nc(N5CCOCC5)ccc34)n2)c1 [Compound 2c] | 3.5 ± 0.7 µM | – | > 50 µM | EC50 [1, 5]: 5.9 ± 0.17 µM |
| – | Cc1cc(-c2cnn3ncccc23)nc(Nc2cccc(C#N)c2)n1 [Compound 2e] | – | – | > 50 µM | EC50 [1, 5]: > 20 µM |
| – | N#Cc1cccc(Nc2cccc(-c3cnn4ncccc34)n2)c1 [Compound 2f] | – | > 20 µM | > 50 µM | EC50 [1, 5]: > 20 µM |
| – | N#Cc1cccc(Nc2cccc(-c3cnn4ncccc34)c2)c1 [Compound 2g] | – | > 20 µM | 19 ± 1 µM | EC50 [1, 5]: > 20 µM |
| – | COc1cccc(Nc2nccc(-c3cnn4ccccc34)n2)c1 [Compound 2h] | – | 3.3 ± 0.97 µM | > 50 µM | – |
| – | COc1ccc(-c2nn3ncccc3c2-c2ccnc(Nc3ccccc3)n2)cc1 [Compound 2i] | 17 ± 3.5 µM | – | > 50 µM | – |
| – | COc1cccc(Nc2nccc(-c3cnn4nc(N5CCOCC5)ccc34)n2)c1 [Compound 2j] | – | 4.9 ± 1.6 µM | > 50 µM | – |
| – | OC1CCC(Nc2nccc(-c3cnn4nc(N5CCOCC5)ccc34)n2)CC1 (stereo not shown) [Compound 2k] | ≤ 14 µM | > 20 µM | > 50 µM | EC50 [2, 8]: 7.5 ± 2.5 µM |
| – | COCc1nn2ncccc2c1-c1ccnc(Nc2cccc(C#N)c2)n1 [Compound 2l] | – | – | > 50 µM | EC50 [2, 8]: ≤ 14 µM; EC50 ([2]; read-out: Naegleria fowleri EC50 ± SD, logarithmic trophozoites, 72 h, n = 3, listed as 2 l): 1.1 ± 0.16 µM |
| – | CC(O)c1nn2ncccc2c1-c1ccnc(Nc2cccc(C#N)c2)n1 (stereo not shown) [Compound 2m] | 17 ± 0.76 µM | – | > 50 µM | – |
| – | CC(C)c1nn2ncccc2c1-c1ccnc(Nc2cccc(C#N)c2)n1 [Compound 2n] | 1.3 ± 0.33 µM | – | 33 ± 2 µM | – |
| – | N#Cc1cccc(Nc2nccc(-c3c(C4CC4)nn4ncccc34)n2)c1 [Compound 2o] | 9.6 ± 6.6 µM | – | > 50 µM | – |
| – | c1cnn2ncc(-c3ccnc(NC4CCCCC4)n3)c2c1 [Compound 2p] | 1.4 ± 0.76 µM | 7.5 ± 3.1 µM | > 50 µM | – |
| 12 ± 7.8 µM | Fc1ccc(Nc2nccc(-c3c(C4CC4)nn4ncccc34)n2)cc1F [Compound 2q] | – | – | – | CC50 at 48 h [4]: > 50 µM; MRC5 TC50 ± Standard Deviation (MRC5 cells; in µM): > 50 |
| – | c1cncc(Nc2nccc(-c3c(C4CC4)nn4ncccc34)n2)c1 [Compound 2r] | 16 ± 3.7 µM | 13 ± 7.5 µM | > 50 µM | – |

| EC50 [2, 9] | Structure (SMILES) | EC50 [2, 6] | EC50 [3] | CC50 at 48 h [4, 7] | also measured |
| --- | --- | --- | --- | --- | --- |
| – | COc1ccc2c(-c3ccnc(NC4CCC(O)CC4)n3)cnn2n1 (stereo not shown) [Compound 2s] | – | 11 ± 4.2 µM | > 50 µM | – |
| – | c1ccc(Nc2nccc(-c3cnn4ncccc34)n2)nc1 [Compound 2t] | – | 10 ± 2.8 µM | > 50 µM | – |
| – | COc1ccc2c(-c3ccnc(NC4CCC(O)CC4)n3)c(C3CC3)nn2n1 (stereo not shown) [Compound 2u] | – | 9.4 ± 3.4 µM | > 50 µM | – |
| 15 ± 4.7 µM | Nc1c(-c2ccccn2)nc2cc(F)ccn12 [Compound 3a, 7-Fluoro-2-(pyridin-2-yl)imidazo[1,2-a]pyridin-3-amine] | – | – | – | EC50 [1, 10]: < 10 µM; EC50 [1, 11]: 6.94 ± 0.11 µM; MRC5 TC50 ± Standard Deviation (MRC5 cells): 64 µM |
| > 20 µM | COc1ccn2c(Nc3ccccc3F)c(-c3cccc(C)n3)nc2c1 [Compound 3c, N-(2-Fluorophenyl)-7-methoxy-2-(6-methylpyridin-2-yl)imidazo[1,2-a]pyridin-3-amine] | – | – | – | EC50 [1, 10]: > 20 µM; MRC5 TC50 ± Standard Deviation (MRC5 cells): 64 µM |
| > 20 µM | Fc1ccn2c(NC3CC3)c(-c3ccccn3)nc2c1 [Compound 3d, N-Cyclopropyl-7-fluoro-2-(pyridin-2-yl)imidazo[1,2-a]pyridin-3-amine] | – | – | – | EC50 [1, 10]: > 20 µM; MRC5 TC50 ± Standard Deviation (MRC5 cells): 64 µM |
| > 20 µM | COc1ccn2c(Nc3ccccc3F)c(-c3cccnc3)nc2c1 [Compound 3g, N-(2-fluorophenyl)-7-methoxy-2-(pyridin-3-yl)imidazo[1,2-a]pyridin-3-amine] | – | – | – | MRC5 TC50 ± Standard Deviation (MRC5 cells): 64 µM |
| > 20 µM | COc1ccn2c(NC(=O)c3ccccc3F)c(-c3ccccn3)nc2c1 [Compound 3h, 2-Fluoro-N-[7-methoxy-2-(pyridin-2-yl)imidazo[1,2-a]pyridin-3-yl]benzamide] | – | – | – | MRC5 TC50 ± Standard Deviation (MRC5 cells): 64 µM |
| > 20 µM | COc1ccn2c(Nc3ccccc3F)c(-c3ncccn3)nc2c1 [Compound 3i, N-(2-Fluorophenyl)-7-methoxy-2-(pyrimidin-2-yl)imidazo[1,2-a]pyridin-3-amine] | – | – | – | MRC5 TC50 ± Standard Deviation (MRC5 cells): 49 µM |
| > 20 µM | COc1ccn2c(Nc3ccccc3F)c(-c3ccncn3)nc2c1 [Compound 3j] | – | – | – | MRC5 TC50 ± Standard Deviation (MRC5 cells): 46 µM |
| > 20 µM | COc1ccn2c(NC(=O)c3ccc(F)cn3)c(-c3ccccn3)nc2c1 [Compound 3k, 5-Fluoro-N-[7-methoxy-2-(pyridin-2-yl)imidazo[1,2-a]pyridin-3-yl]pyridine-2-carboxamide] | – | – | – | MRC5 TC50 ± Standard Deviation (MRC5 cells): 64 µM |
| > 20 µM | COc1ccn2c(NC(=O)c3cccc(F)c3)c(-c3ccccn3)nc2c1 [Compound 3l, 3-Fluoro-N-[7-methoxy-2-(pyridin-2-yl)imidazo[1,2-a]pyridin-3-yl]benzamide] | – | – | – | MRC5 TC50 ± Standard Deviation (MRC5 cells): 59 µM |
| > 20 µM | O=C(N[C@H](CO)c1ccccc1)c1cc(-c2c[nH]c3ncccc23)[nH]n1 [Compound S12, (S)-N-(2-Hydroxy-1-phenylethyl)-5-(1H-pyrrolo[2,3-b]pyridin-3-yl)-1H-pyrazole-3-carboxamide] | – | – | – | EC50 [1, 10]: > 20 µM; EC50 [3, 11]: > 20 µM; MRC5 TC50 ± Standard Deviation (MRC5 cells; in µM): 42 ± 7.7; L6 TC50 ± Standard Deviation (L6 cells): > 17; THP-1 TC50 ± Standard Deviation (THP-1): 42 ± 11 |
| > 20 µM | O=C(N[C@H](CO)c1ccccc1)c1ccc(-c2c[nH]c3ncccc23)nc1 [Compound S15, (S)-N-(2-Hydroxy-1-phenylethyl)-6-(1H-pyrrolo[2,3-b]pyridin-3-yl)nicotinamide] | – | – | – | EC50 [1, 10]: > 20 µM; EC50 [3, 11]: > 20 µM; MRC5 TC50 ± Standard Deviation (MRC5 cells; in µM): > 50; L6 TC50 ± Standard Deviation (L6 cells): > 50; THP-1 TC50 ± Standard Deviation (THP-1): 26 ± 2.0 |
| 3.3 ± 1 µM | O=C1OCc2ccc(Nc3nccc(Nc4cccc5c4C(=O)NC5)n3)cc21 [Compound S20, 7-((2-((3-oxo-1,3-dihydroisobenzofuran-5-yl)amino)pyrimidin-4-yl)amino)isoindolin-1-one] | – | – | – | EC50 [1, 10]: > 20 µM; EC50 [3, 11]: > 20 µM; MRC5 TC50 ± Standard Deviation (MRC5 cells; in µM): > 50; L6 TC50 ± Standard Deviation (L6 cells): > 50; THP-1 TC50 ± Standard Deviation (THP-1): > 50 |
| – | CN(C)S(=O)(=O)c1ccc(N/N=C2\C(=O)Nc3ccccc32)cc1 [Compound S30] | > 20 µM | – | – | EC50 [1, 10]: > 20 µM; EC50 [3, 11]: > 20 µM; MRC5 TC50 ± Standard Deviation (MRC5 cells; in µM): > 50; THP-1 TC50 ± Standard Deviation (THP-1): > 50 |
